# Read-outs that look alike come from different tables or passages of the source.
# Columns and labels:
# [1] = test system: pretreated nonsquamous lung cancer; design: method as in PMID 27697581; settings: cited from earlier work
# [2] = Treatment delivery, dose intensity, discontinuation; format: in vivo, human (patients)
# Description: (§1) In this dose-finding phase I trial, escalating doses of foretinib were added to standard dose erlotinib as continuous daily dosing. Patients were permitted to remain on study treatment until the development of disease progression, unacceptable toxicity or withdrawal of consent. To facilitate pharmacokinetic studies and ensure tolerability of standard therapy, patients received erlotinib alone daily for 14 days during cycle 1, and foretinib was initiated on day 15, cycle 1 if erlotinib was well tolerated. Daily dosing for both agents thereafter was continuous.
# [3] = Dose escalation: DLT and recommended phase II dose; design: species or system human (patients); settings: human, in vivo
# Description: as §1
# Toxicity was evaluated continuously according to the Common Terminology Criteria for Adverse Events (CTCAE), Version 4.0. […] If 1/3 experienced DLT, at least 3 additional patients were treated for a total of 6 evaluable patients treated at that dose level. If 2/3 or 2/6 patients experienced DLT, dose escalation was to be stopped and that dose declared the maximum tolerated dose (MTD), with the next lower dose to be declared the recommended phase II dose for foretinib in combination with erlotinib. While designed as a 3+3 dose escalation study, 3+4 was allowed to ensure that there would be a minimum of 3 evaluable patients without having to reopen a cohort to replace a patient. Intra-patient dose escalation was not allowed. […]
# [4] = Pharmacokinetic analyses (plasma, non-compartmental); format: in vivo, human (patients)
# Description: Patients underwent history and physical examination, performance status, measurement of vital signs, routine hematology and biochemistry studies, thyroid studies and tumor imaging with computed tomography scans at baseline. Blood pressure monitoring and bloodwork was repeated weekly during cycle 1 and then on day 1 of each subsequent cycle. Patients were assessed on day 1 of each subsequent cycle and as needed for toxicity management. Tumor assessment with imaging was performed at every second cycle (8 weeks). Urinalysis was performed on day 1 of each cycle, ophthalmologic examination every 12 weeks, and pharmacokinetic sampling on day 14 and 28 of cycle 1.
# Patients were required not to smoke or chew tobacco products for at least 14 days prior to study entry, and to abstain at least until the completion of pharmacokinetic sampling on day 28 of cycle 1.
# [5] = test system: pretreated EGFR wild type NSCLC; design: method as in PMID 27825638; settings: cited from earlier work
# [6] = test system: EGFR mutant lung cancer cells with upregulated HGF and increased MET copy number; design: method as in earlier work; settings: preclinical studies; cited from earlier work
# [7] = Erlotinib D14, DL1 erlotinib 100 mg daily alone, N=6
# [8] = Erlotinib D14, DL2 erlotinib 150 mg daily alone, N=9
# [9] = Erlotinib D14, DL3 erlotinib 150 mg daily alone, N=7
# [10] = Erlotinib D28, DL1 erlotinib 100 mg + foretinib 30 mg daily, N=7
# [11] = Erlotinib D28, DL2 erlotinib 150 mg + foretinib 30 mg daily, N=11
# [12] = Erlotinib D28, DL3 erlotinib 150 mg + foretinib 45 mg daily, N=6
# [13] = human, plasma, oral, 100 mg, Erlotinib D14, DL1 erlotinib 100 mg daily alone, N=6
# [14] = human, plasma, oral, 150 mg, Erlotinib D14, DL2 erlotinib 150 mg daily alone, N=9
# [15] = human, plasma, oral, 150 mg, Erlotinib D14, DL3 erlotinib 150 mg daily alone, N=7
# [16] = human, plasma, oral, Erlotinib D28, DL1 erlotinib 100 mg + foretinib 30 mg daily, N=7
# [17] = human, plasma, oral, Erlotinib D28, DL2 erlotinib 150 mg + foretinib 30 mg daily, N=11
# [18] = human, plasma, oral, Erlotinib D28, DL3 erlotinib 150 mg + foretinib 45 mg daily, N=6
# [19] = Foretinib D28, DL1 foretinib 30 mg + erlotinib 100 mg daily, N=7
# [20] = Foretinib D28, DL2 foretinib 30 mg + erlotinib 150 mg daily, N=11
# [21] = Foretinib D28, DL3 foretinib 45 mg + erlotinib 150 mg daily, N=6
# [22] = human, plasma, oral, Foretinib D28, DL1 foretinib 30 mg + erlotinib 100 mg daily, N=7
# [23] = human, plasma, oral, Foretinib D28, DL2 foretinib 30 mg + erlotinib 150 mg daily, N=11
# [24] = human, plasma, oral, Foretinib D28, DL3 foretinib 45 mg + erlotinib 150 mg daily, N=6
smiles,measurement,setting,value
C[C@@H](Oc1cc(-c2cnn(C3CCNCC3)c2)cnc1N)c1c(Cl)ccc(F)c1Cl [crizotinib],"RP2D, crizotinib","[1]; BID, plus erlotinib 100 mg daily",150 mg
C#Cc1cccc(Nc2ncnc3cc(OCCOC)c(OCCOC)cc23)c1 [erlotinib],"RP2D, erlotinib","[1]; daily, plus crizotinib 150 mg BID",100 mg
same,"erlotinib exposure, pharmacokinetic interaction",[1]; with crizotinib,increased erlotinib exposure
same,"% receiving >=90% planned dose intensity, Erlotinib","[2]; DL1 (N=9), 30/100 mg",78%
same,"% receiving >=90% planned dose intensity, Erlotinib","[2]; DL2 (n=15), 30/150 mg",40%
same,"% receiving >=90% planned dose intensity, Erlotinib","[2]; DL3 (N=7), 45/150 mg",43%
same,"recommended phase II dose, erlotinib",[3],150 mg
same,Cavg,[4]; [7],1254 (SD 622) ng/mL
same,Clast,[4]; [7],1106 (SD 710) ng/mL
same,Cmax,[4]; [7],1719 (SD 624) ng/mL
same,Cmax Dose Norm,[4]; [7],17.2 (SD 6.24) ng/mL/mg
same,Cmin,[4]; [7],815 (SD 641) ng/mL
same,Tmin,[4]; [7],4.17 (SD 9.71) hr
same,Cavg,[4]; [8],1466 (SD 507) ng/mL
same,Clast,[4]; [8],1137 (SD 419) ng/mL
same,Cmax,[4]; [8],2335 (SD 770) ng/mL
same,Cmax Dose Norm,[4]; [8],15.6 (SD 5.13) ng/mL/mg
same,Cmin,[4]; [8],1047 (SD 437) ng/mL
same,Tmin,[4]; [8],13.33 (SD 12.65) hr
same,Cavg,[4]; [9],1548 (SD 621) ng/mL
same,Clast,[4]; [9],1247 (SD 565) ng/mL
same,Cmax Dose Norm,[4]; [9],14.91 (SD 4.14) ng/mL/mg
same,Cmin,[4]; [9],1027 (SD 507) ng/mL
same,Tmin,[4]; [9],4.71 (SD 8.77) hr
same,Cavg,[4]; [10],1497 (SD 975) ng/mL
same,Clast,[4]; [10],1300 (SD 861.44) ng/mL
same,Cmax,[4]; [10],2387 (SD 1707) ng/mL
same,Cmax Dose Norm,[4]; [10],23.87 (SD 17.07) ng/mL/mg
same,Cmin,[4]; [10],1092 (SD 894) ng/mL
same,Tmin,[4]; [10],11.2 (SD 12.07) hr
same,Cavg,[4]; [11],1579 (SD 643) ng/mL
same,Clast,[4]; [11],1343 (SD 687) ng/mL
same,Cmax Dose Norm,[4]; [11],17.64 (SD 6.49) ng/mL/mg
same,Cmin,[4]; [11],1293 (SD 688) ng/mL
same,Tmin,[4]; [11],13.27 (SD 12.34) hr
same,AUCt,[4]; [12],40765 (SD 16673) ng*hr/mL
same,Cavg,[4]; [12],1699 (SD 695) ng/mL
same,Clast,[4]; [12],1283 (SD 697) ng/mL
same,Cmax Dose Norm,[4]; [12],16.48 (SD 4.78) ng/mL/mg
same,Cmin,[4]; [12],1244 (SD 725) ng/mL
same,Tmin,[4]; [12],16.17 (SD 12.14) hr
same,AUC(0-t),[4]; [13],30100 ng·h/mL
same,Tmax,[4]; [13],7.67 h
same,clearance,[4]; [13],28.6 mL/min
same,AUC(0-t),[4]; [14],35200 ng·h/mL
same,Tmax,[4]; [14],2.22 h
same,clearance,[4]; [14],85.4 mL/min
same,AUC(0-t),[4]; [15],35500 ng·h/mL
same,Tmax,[4]; [15],3.86 h
same,clearance,[4]; [15],79.9 mL/min
same,Cmax,"[4]; human, plasma, oral, 150 mg, Erlotinib D14, DL3 erlotinib 150 mg daily alone, N=7, read-out: Cmax",2240 ng/mL
same,AUC(0-t),[4]; [16],35900 ng·h/mL
same,Tmax,[4]; [16],2.29 h
same,clearance,[4]; [16],33.9 mL/min
same,AUC(0-t),[4]; [17],36200 ng·h/mL
same,Tmax,[4]; [17],2.64 h
same,clearance,[4]; [17],76.1 mL/min
same,Tmax,[4]; [18],2.33 h
same,clearance,[4]; [18],76.2 mL/min
same,Cmax,"[4]; human, plasma, oral, Erlotinib D28, DL3 erlotinib 150 mg + foretinib 45 mg daily, N=6, read-out: Cmax",2470 ng/mL
same,PFS,[5],1.8 months
COc1cc2c(Oc3ccc(NC(=O)C4(C(=O)Nc5ccc(F)cc5)CC4)cc3F)ccnc2cc1OCCCN1CCOCC1 [foretinib],sensitivity when added to erlotinib,[6],significantly increases sensitivity
same,"% receiving >=90% planned dose intensity, Foretinib Cycle 1","[2]; DL1 (N=9), 30/100 mg",100%
same,"% receiving >=90% planned dose intensity, Foretinib Cycle >= 2","[2]; DL1 (N=9), 30/100 mg",50%
same,"% receiving >=90% planned dose intensity, Foretinib Cycle 1","[2]; DL2 (n=15), 30/150 mg",67%
same,"% receiving >=90% planned dose intensity, Foretinib Cycle >= 2","[2]; DL2 (n=15), 30/150 mg",31%
same,"% receiving >=90% planned dose intensity, Foretinib Cycle 1","[2]; DL3 (N=7), 45/150 mg",86%
same,"% receiving >=90% planned dose intensity, Foretinib Cycle >= 2","[2]; DL3 (N=7), 45/150 mg",0
same,"recommended phase II dose, foretinib",[3],30 mg
same,Cavg,[4]; [19],30.35 (SD 9.23) ng/mL
same,Clast,[4]; [19],27.29 (SD 10.66) ng/mL
same,Cmax Dose Norm,[4]; [19],1.45 (SD 0.59) ng/mL/mg
same,Cmin,[4]; [19],22.79 (SD 7.74) ng/mL
same,Tmin,[4]; [19],12.29 (SD 11.34) hr
same,Cavg,[4]; [20],29.17 (SD 13.58) ng/mL
same,Clast,[4]; [20],24.12 (SD 9.34) ng/mL
same,Cmax Dose Norm,[4]; [20],1.49 (SD 0.74) ng/mL/mg
same,Cmin,[4]; [20],22.47 (SD 10.61) ng/mL
same,Tmin,[4]; [20],13.36 (SD 12.23) hr
same,Cavg,[4]; [21],42.07 (SD 17.31) ng/mL
same,Clast,[4]; [21],34.22 (SD 17.3) ng/mL
same,Cmax Dose Norm,[4]; [21],1.21 (SD 0.4) ng/mL/mg
same,Cmin,[4]; [21],31.96 (SD 18.16) ng/mL
same,Tmin,[4]; [21],12.0 (SD 13.15) hr
same,AUC(0-t),[4]; [22],728 ng·h/mL
same,Tmax,[4]; [22],3.14 h
same,clearance,[4]; [22],419 mL/min
same,Cmax,"[4]; human, plasma, oral, Foretinib D28, DL1 foretinib 30 mg + erlotinib 100 mg daily, N=7, read-out: Cmax",43.4 ng/mL
same,AUC(0-t),[4]; [23],681 ng·h/mL
same,Tmax,[4]; [23],3.55 h
same,clearance,[4]; [23],492 mL/min
same,Cmax,"[4]; human, plasma, oral, Foretinib D28, DL2 foretinib 30 mg + erlotinib 150 mg daily, N=11, read-out: Cmax",44.8 ng/mL
same,AUC(0-t),[4]; [24],1010 ng·h/mL
same,Tmax,[4]; [24],3.5 h
same,clearance,[4]; [24],829 mL/min
same,Cmax,"[4]; human, plasma, oral, Foretinib D28, DL3 foretinib 45 mg + erlotinib 150 mg daily, N=6, read-out: Cmax",55.9 ng/mL
